The source made the active and inactive calls. The calls are words filed in the database; no cut-off is given here.
What was measured:
[1] = target: Serine/threonine-protein kinase MARK2 (Homo sapiens) (UniProt Q7KZI7); assay: Inhibition of PAR-1B-alpha (unknown origin) at 1 uM by mobility shift microfluidics platform based assay relative to control
[2] = target: Receptor-type tyrosine-protein kinase FLT3 (Homo sapiens) (UniProt P36888); assay: Inhibition of FLT3 (unknown origin) at 1 uM by mobility shift microfluidics platform based assay relative to control
Bcr/Abl fusion protein = Bcr/Abl fusion protein (Homo sapiens, UniProt P00519); assay: Inhibition of BCR-ABL (unknown origin) expressed in mouse BA/F3 cells assessed as reduction in ABL phosphorylation at Y412 residue incubated for 3 hrs by immunoblotting assay; type: cell-based
[3] = target: Protein kinase C alpha type (Homo sapiens) (UniProt P17252); assay: Inhibition of PKC-alpha (unknown origin) at 1 uM by mobility shift microfluidics platform based assay relative to control
[4] = target: Serine/threonine-protein kinase B-raf (Homo sapiens) (UniProt P15056); assay: Inhibition of BRAF (unknown origin) at 1 uM by mobility shift microfluidics platform based assay relative to control
[5] = target: Serine/threonine-protein kinase TAO2 (Homo sapiens) (UniProt Q9UL54); assay: Inhibition of TAOK2 (unknown origin) at 1 uM by mobility shift microfluidics platform based assay relative to control
[6] = target: Serine/threonine-protein kinase Nek1 (Homo sapiens) (UniProt Q96PY6); assay: Inhibition of NEK1 (unknown origin) at 1 uM by mobility shift microfluidics platform based assay relative to control
[7] = target: Tyrosine-protein kinase ABL2 (Homo sapiens) (UniProt P42684); assay: Inhibition of ARG (unknown origin) at 1 uM by mobility shift microfluidics platform based assay relative to control
[8] = target: Serine/threonine-protein kinase 16 (Homo sapiens) (UniProt O75716); assay: Inhibition of STK16 (unknown origin) at 1 uM by mobility shift microfluidics platform based assay relative to control
Homo sapiens = species on record: Homo sapiens; assay: Inhibition of CDK6/Cyclin D (unknown origin) at 1 uM by mobility shift microfluidics platform based assay relative to control
[9] = target: Mitogen-activated protein kinase 12 (Homo sapiens) (UniProt P53778); assay: Inhibition of P38-gamma (unknown origin) at 1 uM by mobility shift microfluidics platform based assay relative to control
[10] = target: Serine/threonine-protein kinase BRSK2 (Homo sapiens) (UniProt Q8IWQ3); assay: Inhibition of BRSK2 (unknown origin) at 1 uM by mobility shift microfluidics platform based assay relative to control
[11] = target: Serine/threonine-protein kinase 24 (Homo sapiens) (UniProt Q9Y6E0); assay: Inhibition of MST3 (unknown origin) at 1 uM by mobility shift microfluidics platform based assay relative to control
[12] = target: Proto-oncogene tyrosine-protein kinase receptor Ret (Homo sapiens) (UniProt P07949); assay: Inhibition of RET (unknown origin) at 1 uM by mobility shift microfluidics platform based assay relative to control
[13] = target: Protein-tyrosine kinase 6 (Homo sapiens) (UniProt Q13882); assay: Inhibition of BRK (unknown origin) at 1 uM by mobility shift microfluidics platform based assay relative to control
[14] = target: Casein kinase I isoform gamma-3 (Homo sapiens) (UniProt Q9Y6M4); assay: Inhibition of CK1-gamma3 (unknown origin) at 1 uM by mobility shift microfluidics platform based assay relative to control
[15] = target: Ribosomal protein S6 kinase alpha-5 (Homo sapiens) (UniProt O75582); assay: Inhibition of MSK1 (unknown origin) at 1 uM by mobility shift microfluidics platform based assay relative to control
[16] = target: T1, Tyrosine-protein kinase ABL1 (Homo sapiens, UniProt P00519); assay: Inhibition of ABL (unknown origin) at 30 nM by phosphocellulose paper disk assay
[17] = target: T1, Tyrosine-protein kinase ABL1; assay: Inhibition of ABL (unknown origin) by phosphocellulose paper disk assay

Sequence of Serine/threonine-protein kinase B-raf (Homo sapiens) (P15056 whole entry): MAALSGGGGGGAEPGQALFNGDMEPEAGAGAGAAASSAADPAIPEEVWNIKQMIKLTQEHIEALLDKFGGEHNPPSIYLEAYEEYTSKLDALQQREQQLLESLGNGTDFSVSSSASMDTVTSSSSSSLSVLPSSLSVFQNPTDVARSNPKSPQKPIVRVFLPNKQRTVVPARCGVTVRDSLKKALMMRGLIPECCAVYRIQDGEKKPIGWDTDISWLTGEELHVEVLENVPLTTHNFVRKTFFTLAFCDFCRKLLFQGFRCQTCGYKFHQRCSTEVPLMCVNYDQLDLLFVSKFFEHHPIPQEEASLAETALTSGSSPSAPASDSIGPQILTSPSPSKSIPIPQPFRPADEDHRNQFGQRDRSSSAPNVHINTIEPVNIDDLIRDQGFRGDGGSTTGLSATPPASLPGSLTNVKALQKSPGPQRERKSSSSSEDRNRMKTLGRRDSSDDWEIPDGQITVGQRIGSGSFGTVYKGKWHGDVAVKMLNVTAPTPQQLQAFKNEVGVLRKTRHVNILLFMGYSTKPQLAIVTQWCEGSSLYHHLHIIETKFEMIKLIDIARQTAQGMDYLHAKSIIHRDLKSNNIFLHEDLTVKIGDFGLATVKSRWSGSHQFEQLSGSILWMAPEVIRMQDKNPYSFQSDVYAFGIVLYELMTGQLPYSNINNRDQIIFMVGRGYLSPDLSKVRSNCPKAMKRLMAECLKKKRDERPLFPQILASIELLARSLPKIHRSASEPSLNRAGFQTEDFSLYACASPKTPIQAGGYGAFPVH
Sequence of Serine/threonine-protein kinase 24 (Homo sapiens) (Q9Y6E0 whole entry, looked up): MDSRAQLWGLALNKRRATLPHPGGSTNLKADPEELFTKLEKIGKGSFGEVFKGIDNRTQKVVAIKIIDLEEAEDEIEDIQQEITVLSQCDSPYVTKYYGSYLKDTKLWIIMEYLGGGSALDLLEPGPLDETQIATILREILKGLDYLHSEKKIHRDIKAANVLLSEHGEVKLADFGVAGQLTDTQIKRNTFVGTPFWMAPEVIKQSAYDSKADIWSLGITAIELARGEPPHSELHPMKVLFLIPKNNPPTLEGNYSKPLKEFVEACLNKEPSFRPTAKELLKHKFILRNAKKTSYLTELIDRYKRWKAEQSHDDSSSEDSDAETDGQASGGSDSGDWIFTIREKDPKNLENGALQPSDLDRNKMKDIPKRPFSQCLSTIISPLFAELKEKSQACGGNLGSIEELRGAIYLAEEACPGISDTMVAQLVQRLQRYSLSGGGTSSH
Sequence of Serine/threonine-protein kinase 16 (Homo sapiens) (O75716 whole entry): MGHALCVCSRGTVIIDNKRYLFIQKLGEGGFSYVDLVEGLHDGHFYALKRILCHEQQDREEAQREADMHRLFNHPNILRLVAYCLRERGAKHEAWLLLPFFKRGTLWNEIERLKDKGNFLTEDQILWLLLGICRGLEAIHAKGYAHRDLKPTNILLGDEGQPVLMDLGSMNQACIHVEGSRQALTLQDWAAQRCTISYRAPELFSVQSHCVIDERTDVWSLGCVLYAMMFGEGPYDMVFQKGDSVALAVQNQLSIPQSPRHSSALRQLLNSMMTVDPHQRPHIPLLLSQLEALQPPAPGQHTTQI
Sequence of Serine/threonine-protein kinase BRSK2 (Homo sapiens) (Q8IWQ3 whole entry): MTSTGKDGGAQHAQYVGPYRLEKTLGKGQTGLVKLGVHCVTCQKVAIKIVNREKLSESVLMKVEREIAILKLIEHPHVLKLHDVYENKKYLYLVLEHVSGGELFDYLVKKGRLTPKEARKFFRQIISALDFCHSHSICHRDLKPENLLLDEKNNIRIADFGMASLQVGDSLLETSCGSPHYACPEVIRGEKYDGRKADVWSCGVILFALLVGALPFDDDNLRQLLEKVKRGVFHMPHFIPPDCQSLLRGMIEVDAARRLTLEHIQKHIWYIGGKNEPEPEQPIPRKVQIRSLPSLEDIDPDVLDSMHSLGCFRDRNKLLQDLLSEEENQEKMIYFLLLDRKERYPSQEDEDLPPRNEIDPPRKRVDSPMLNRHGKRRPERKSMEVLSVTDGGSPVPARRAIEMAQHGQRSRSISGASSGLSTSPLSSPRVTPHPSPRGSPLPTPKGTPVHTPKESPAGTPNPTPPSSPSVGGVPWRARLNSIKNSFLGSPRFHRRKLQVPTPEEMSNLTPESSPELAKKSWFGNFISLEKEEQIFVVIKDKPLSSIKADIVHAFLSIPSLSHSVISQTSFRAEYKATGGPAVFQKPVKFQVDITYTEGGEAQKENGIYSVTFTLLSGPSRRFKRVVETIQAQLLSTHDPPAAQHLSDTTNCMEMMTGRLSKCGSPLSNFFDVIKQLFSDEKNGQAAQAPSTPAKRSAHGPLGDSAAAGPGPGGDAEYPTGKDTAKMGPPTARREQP
Sequence of Serine/threonine-protein kinase TAO2 (Homo sapiens) (Q9UL54 whole entry): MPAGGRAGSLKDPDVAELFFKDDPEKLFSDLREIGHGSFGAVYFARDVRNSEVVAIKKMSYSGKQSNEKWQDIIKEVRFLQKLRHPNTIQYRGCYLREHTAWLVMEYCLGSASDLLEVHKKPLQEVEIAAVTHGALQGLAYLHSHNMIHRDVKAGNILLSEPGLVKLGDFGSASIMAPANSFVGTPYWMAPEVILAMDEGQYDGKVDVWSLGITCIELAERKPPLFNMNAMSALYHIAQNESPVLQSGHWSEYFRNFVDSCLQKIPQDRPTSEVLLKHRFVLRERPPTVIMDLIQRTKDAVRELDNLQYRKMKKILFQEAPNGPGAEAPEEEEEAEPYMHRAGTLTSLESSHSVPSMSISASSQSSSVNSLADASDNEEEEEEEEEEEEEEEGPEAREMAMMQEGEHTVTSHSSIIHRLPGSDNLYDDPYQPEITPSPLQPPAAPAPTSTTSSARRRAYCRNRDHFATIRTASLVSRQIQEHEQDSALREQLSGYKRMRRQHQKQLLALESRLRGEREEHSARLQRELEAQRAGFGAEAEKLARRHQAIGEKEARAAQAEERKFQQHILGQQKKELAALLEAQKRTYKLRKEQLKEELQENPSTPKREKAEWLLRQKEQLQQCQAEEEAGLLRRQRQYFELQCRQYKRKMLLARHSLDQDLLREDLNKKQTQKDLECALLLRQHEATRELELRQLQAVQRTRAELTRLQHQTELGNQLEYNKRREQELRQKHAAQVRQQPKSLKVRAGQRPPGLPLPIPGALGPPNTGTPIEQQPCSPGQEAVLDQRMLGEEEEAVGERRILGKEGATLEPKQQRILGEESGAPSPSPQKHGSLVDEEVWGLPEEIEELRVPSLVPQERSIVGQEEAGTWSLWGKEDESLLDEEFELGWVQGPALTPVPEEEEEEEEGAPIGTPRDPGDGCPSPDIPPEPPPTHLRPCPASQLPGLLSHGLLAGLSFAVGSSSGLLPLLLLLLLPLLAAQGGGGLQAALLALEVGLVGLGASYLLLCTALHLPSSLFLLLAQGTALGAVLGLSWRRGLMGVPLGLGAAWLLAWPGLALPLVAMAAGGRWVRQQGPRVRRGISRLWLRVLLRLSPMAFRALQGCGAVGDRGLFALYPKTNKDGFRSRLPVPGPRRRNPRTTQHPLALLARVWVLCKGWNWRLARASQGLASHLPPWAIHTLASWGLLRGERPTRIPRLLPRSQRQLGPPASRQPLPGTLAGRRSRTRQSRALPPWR
Sequence of Tyrosine-protein kinase ABL2 (Homo sapiens) (P42684 whole entry): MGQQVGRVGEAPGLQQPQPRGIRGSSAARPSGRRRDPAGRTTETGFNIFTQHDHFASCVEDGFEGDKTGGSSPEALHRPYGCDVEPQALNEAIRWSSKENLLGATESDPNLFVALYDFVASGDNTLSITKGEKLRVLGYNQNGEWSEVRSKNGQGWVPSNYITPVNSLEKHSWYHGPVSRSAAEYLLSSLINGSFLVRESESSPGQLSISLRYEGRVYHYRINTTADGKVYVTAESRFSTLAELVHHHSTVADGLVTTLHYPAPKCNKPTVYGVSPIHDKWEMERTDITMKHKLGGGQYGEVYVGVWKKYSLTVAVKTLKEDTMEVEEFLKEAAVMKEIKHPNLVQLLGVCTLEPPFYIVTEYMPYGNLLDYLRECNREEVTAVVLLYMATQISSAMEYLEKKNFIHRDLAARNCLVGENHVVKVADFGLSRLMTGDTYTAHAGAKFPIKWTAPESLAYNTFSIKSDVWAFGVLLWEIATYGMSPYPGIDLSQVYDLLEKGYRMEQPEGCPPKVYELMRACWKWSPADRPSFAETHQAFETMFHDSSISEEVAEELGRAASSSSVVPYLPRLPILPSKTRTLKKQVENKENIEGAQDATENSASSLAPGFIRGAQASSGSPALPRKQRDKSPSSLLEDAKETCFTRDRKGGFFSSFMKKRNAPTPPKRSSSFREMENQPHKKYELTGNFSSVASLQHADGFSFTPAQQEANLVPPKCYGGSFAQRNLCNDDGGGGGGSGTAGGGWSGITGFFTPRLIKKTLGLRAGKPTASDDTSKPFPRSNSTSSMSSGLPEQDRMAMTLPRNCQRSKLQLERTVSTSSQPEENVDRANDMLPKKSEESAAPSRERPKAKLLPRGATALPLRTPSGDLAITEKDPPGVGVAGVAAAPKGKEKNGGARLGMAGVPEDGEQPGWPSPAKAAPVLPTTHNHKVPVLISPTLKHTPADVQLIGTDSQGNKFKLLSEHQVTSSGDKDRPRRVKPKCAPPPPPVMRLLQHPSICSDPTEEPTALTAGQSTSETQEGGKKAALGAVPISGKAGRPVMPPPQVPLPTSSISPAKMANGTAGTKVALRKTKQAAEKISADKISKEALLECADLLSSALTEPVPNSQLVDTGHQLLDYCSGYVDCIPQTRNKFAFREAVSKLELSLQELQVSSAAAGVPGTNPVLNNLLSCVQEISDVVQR
Sequence of Mitogen-activated protein kinase 12 (Homo sapiens) (P53778 whole entry): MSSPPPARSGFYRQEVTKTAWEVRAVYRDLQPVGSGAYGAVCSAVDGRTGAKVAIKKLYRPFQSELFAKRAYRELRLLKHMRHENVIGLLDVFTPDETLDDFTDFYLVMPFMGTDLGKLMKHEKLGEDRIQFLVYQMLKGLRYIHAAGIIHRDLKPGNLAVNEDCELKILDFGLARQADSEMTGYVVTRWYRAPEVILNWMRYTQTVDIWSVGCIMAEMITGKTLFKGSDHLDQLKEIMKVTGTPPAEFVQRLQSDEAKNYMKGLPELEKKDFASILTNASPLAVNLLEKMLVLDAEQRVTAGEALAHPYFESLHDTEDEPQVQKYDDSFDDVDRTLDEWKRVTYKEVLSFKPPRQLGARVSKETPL

inhibition [1] | inhibition [2] | IC50 (Bcr/Abl fusion protein) | inhibition [3] | inhibition [4] | inhibition [5] | inhibition [6] | inhibition [7] | inhibition [8] | inhibition (Homo sapiens) | inhibition [9] | inhibition [10] | inhibition [11] | inhibition [12] | inhibition [13] | inhibition [14] | inhibition [15] | inhibition [16] | IC50 [17] | Compound
0% | 29% | 7.5 nM | -7% | 101% | 17% | -1% | 99% | 8% | -1% | 1% | -3% | 0% | 100% | 97% | 2% |  |  |  | CC(C)n1nc(C#Cc2cccc(NC(=O)c3cccc(C(F)(F)F)c3)c2)c2c(N)ncnc21
0% | 7% |  | 2% | 92% | 17% | -5% | 94% | 2% | 0% | 0% | 0% | 3% | 98% | 86% |  | 5% | inactive | 3 nM | CC(C)n1nc(C#Cc2cccc3cc(-c4cccc(C(F)(F)F)c4)ncc23)c2c(N)ncnc21

Source: ChEMBL document CHEMBL4229333, “Effects of rigidity on the selectivity of protein kinase inhibitors” (Eur J Med Chem, 2018)
